Experimental data as given in patent publication US11702422B2, “Imidazopyridazines as modulators of IL-17” (Janssen Pharmaceutica NV, priority 2020, dated 2023).

Key:
[1] = tested on: IL-17A-induced G-CSF production in human normal keratinocyte (NHK); assay: NHK Assay: IL-17A-induced G-CSF production in human normal keratinocytes; type: cell-based; details: Homo sapiens, Keratinocyte, 24 h, adult normal human keratinocytes, IL-17A 5 ng/mL, simple average if tested more than once
Outline: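 Adult NHK, 3000-4000 cells/well; rhIL-17A + titrated cpd preincubated 1 h rt, then onto cells. Final: IL-17A 5 ng/mL, DMSO 0.2%, 5% FBS. 24 h, 37° C. G-CSF in supernatant by HTRF vs standard curve; IC50. Viability by CellTiter-Glo vs DMSO.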

[2] = biological target: IL-17A(FLAG-Tagged): IL-17RA(His-Tagged) (Homo sapiens, UniProt Q16552, K93Q); assay: IL-17A(FLAG-Tagged): IL-17RA(His-Tagged) Binding Disruption Eu-HTRF Assay; details: IL-17A/IL-17RA binding disruption, simple average if tested more than once
Outline: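 IC50 comes from a one-site competition fit of the HTRF 665/620 nm ratio. Compound dilutions (2-fold, 22 points) were held 1 h rt with FLAG-tagged IL-17A dimer, then His-tagged IL-17RA plus Eu-cryptate anti-FLAG and D2 anti-His antibodies were added for 2 h rt.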

Sequence of UniProt Q16552 (Q16552 with tags, fused parts or gaps K93Q): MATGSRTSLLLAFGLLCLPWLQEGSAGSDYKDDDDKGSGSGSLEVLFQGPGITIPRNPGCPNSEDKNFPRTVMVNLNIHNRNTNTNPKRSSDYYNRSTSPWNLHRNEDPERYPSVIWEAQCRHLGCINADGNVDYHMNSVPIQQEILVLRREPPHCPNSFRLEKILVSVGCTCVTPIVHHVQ

Row | Compound | IC50 [2] | IC50 [1]
1 | CC(C)n1nccc1C(=O)N[C@H](c1cn2ncc([C@H](NC(=O)CC34CC(C3)C4)C3CC3)cc2n1)C1CCC(F)(F)CC1 [Example 248, N—((S)-(7-((R)-(2-(Cicyclo[1.1.1]pentan-1-yl)acetamido)(cyclopropyl)methyl)imidazo[1,2-b]pyridazin-2-yl)(4,4-difluorocyclohexyl)methyl)-1-isopropyl-1H-pyrazole-5-carboxamide] | 49 nM | 37 nM
2 | Cc1nonc1C(=O)N[C@H](c1cn2ncc([C@H](NC(=O)CC34CC(C3)C4)C3CC3)cc2n1)C1CCC(F)(F)CC1 [Example 249, N—((S)-(7-((R)-(2-(Bicyclo[1.1.1]pentan-1-yl)acetamido)(cyclopropyl)methyl)imidazo[1,2-b]pyridazin-2-yl)(4,4-difluorocyclohexyl)methyl)-4-methyl-1,2,5-oxadiazole-3-carboxamide] | 24 nM | 98 nM
3 | Cc1nonc1C(=O)N[C@H](c1cn2ncc([C@H](NC(=O)CCC(F)F)C3CC3)cc2n1)C1CCC(F)(F)CC1 [Example 250, N—((S)-(7-((R)-Cyclopropyl(4,4-difluorobutanamido)methyl)imidazo[1,2-b]pyridazin-2-yl)(4,4-difluorocyclohexyl)methyl)-4-methyl-1,2,5-oxadiazole-3-carboxamide] | 98 nM | 390 nM
4 | Cc1nonc1C(=O)N[C@H](c1cn2ncc([C@H](NC(=O)CCCF)C3CC3)cc2n1)C1CCC(F)(F)CC1 [Example 252, N—((S)-(7-((R)-Cyclopropyl(4-fluorobutanamido)methyl)imidazo[1,2-b]pyridazin-2-yl)(4,4-difluorocyclohexyl)methyl)-4-methyl-1,2,5-oxadiazole-3-carboxamide] | 640 nM | 7700 nM
5 | Cc1nonc1C(=O)N[C@H](c1cn2ncc([C@H](NC(=O)CC(C)(C)C(F)(F)F)C3CC3)cc2n1)C1CCC(F)(F)CC1 [Example 253, N—((S)-(7-((R)-Cyclopropyl(4,4,4-trifluoro-3,3-dimethylbutanamido)methyl)imidazo[1,2-b]pyridazin-2-yl)(4,4-difluorocyclohexyl)methyl)-4-methyl-1,2,5-oxadiazole-3-carboxamide] | 220 nM | 760 nM
6 | Cc1nonc1C(=O)N[C@H](c1cn2ncc([C@H](NC(=O)CCC(C)(F)F)C3CC3)cc2n1)C1CCC(F)(F)CC1 [Example 259, N—((S)-(7-((R)-Cyclopropyl(4,4-difluoropentanamido)methyl)imidazo[1,2-b]pyridazin-2-yl)(4,4-difluorocyclohexyl)methyl)-4-methyl-1,2,5-oxadiazole-3-carboxamide] | 120 nM | 620 nM

Second part, led by results:

Row | IC50 [2] | Compound | IC50 [1]
7 | 200 nM | CC(C)n1nccc1C(=O)N[C@H](c1cn2ncc([C@H](NC(=O)CCCF)C3CC3)cc2n1)C1CCC(F)(F)CC1 [Example 251, N—((S)-(7-((R)-Cyclopropyl(4-fluorobutanamido)methyl)imidazo[1,2-b]pyridazin-2-yl)(4,4-difluorocyclohexyl)methyl)-1-isopropyl-1H-pyrazole-5-carboxamide] | 770 nM
8 | 290 nM | CC(C)n1nccc1C(=O)N[C@H](c1cn2ncc([C@H](NC(=O)CC(C)(C)C(F)(F)F)C3CC3)cc2n1)C1CCC(F)(F)CC1 [Example 254, N—((S)-(7-((R)-Cyclopropyl(4,4,4-trifluoro-3,3-dimethylbutanamido)methyl)imidazo[1,2-b]pyridazin-2-yl)(4,4-difluorocyclohexyl)methyl)-1-isopropyl-1H-pyrazole-5-carboxamide] | 200 nM
9 | 120 nM | CC(C)n1nccc1C(=O)N[C@H](c1cn2ncc([C@H](NC(=O)CCC(C)(F)F)C3CC3)cc2n1)C1CCC(F)(F)CC1 [Example 260, N—((S)-(7-((R)-Cyclopropyl(4,4-difluoropentanamido)methyl)imidazo[1,2-b]pyridazin-2-yl)(4,4-difluorocyclohexyl)methyl)-1-isopropyl-1H-pyrazole-5-carboxamide] | 180 nM
